# Data taken from PubChem BioAssay (NCI).
#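 48-hour exposure; five concentrations; linearly interpolated endpoints. GI50: concentration for 50% inhibition of growth. TGI is the concentration that stops growth completely.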
# Legend:
# Experiment in all cases: NCI anticancer screen, dose series, 48 h
# ACHN renal = system: ACHN renal
# NCI/ADR-RES ovarian = system: NCI/ADR-RES ovarian
# OVCAR-8 ovarian = system: OVCAR-8 ovarian
# HT29 colon = system: HT29 colon
# SNB-75 CNS = system: SNB-75 CNS
# DU-145 prostate = system: DU-145 prostate
# RPMI-8226 leukemia = system: RPMI-8226 leukemia
# MDA-MB-435 = system: MDA-MB-435
# SK-MEL-28 melanoma = system: SK-MEL-28 melanoma
# UACC-62 melanoma = system: UACC-62 melanoma
Compound,GI50 (ACHN renal) [µM],TGI (ACHN renal) [µM],GI50 (NCI/ADR-RES ovarian) [µM],TGI (NCI/ADR-RES ovarian) [µM],GI50 (OVCAR-8 ovarian) [µM],TGI (OVCAR-8 ovarian) [µM],GI50 (HT29 colon) [µM],TGI (HT29 colon) [µM],GI50 (SNB-75 CNS) [µM],TGI (SNB-75 CNS) [µM],GI50 (DU-145 prostate) [µM],TGI (DU-145 prostate) [µM],GI50 (RPMI-8226 leukemia) [µM],TGI (RPMI-8226 leukemia) [µM],GI50 (MDA-MB-435) [µM],TGI (MDA-MB-435) [µM],GI50 (SK-MEL-28 melanoma) [µM],TGI (SK-MEL-28 melanoma) [µM],GI50 (UACC-62 melanoma) [µM],TGI (UACC-62 melanoma) [µM]
ClCCOCCn1cnc2c(Cl)nc(Cl)nc21,14.4,27.5,17.9,41.4,10.3,26.5,19.6,73.6,13.8,29.2,10.2,21.9,18.6,> 100,10.9,24.1,7.09,20.1,14,27.2
CCN(CC)c1ccc2nc3ccc(=[N+](CC)CC)cc-3oc2c1,1.56,59.8,6.52,> 73.3,0.121,–,0.182,2.67,1.31,6.85,0.522,20.9,0.264,20,0.401,1.89,1.5,27.7,0.756,4.33
COCCN(Cc1ccc(F)cc1)c1ccc(CO)c(Cl)c1,39.9,> 100,27.1,> 100,29.9,> 100,22.4,> 100,16.6,> 87.4,70.4,> 100,17.6,> 95.9,55.5,> 100,31.3,> 100,0.653,4.28
CCCCCC(=O)O[C@]1(C(C)=O)CCC2C3CCC4=CC(=O)CC[C@]4(C)C3CC[C@@]21C (some centres undefined),3,11.6,2.11,8.42,2.61,10.7,2.59,7.88,2.15,12.6,3.56,13.4,1.42,4.82,3.25,13.1,2.49,6.82,1.63,3.88
Cc1ccc(S(=O)(=O)NCCCCC(N)C(=O)O)cc1 (centres undefined),–,> 100,–,> 100,–,> 100,–,> 100,–,> 100,–,> 100,–,> 100,–,> 100,–,> 100,–,> 100
Fc1ccc(NC(c2ccc(F)cc2)C2CCN(CCCCc3ccccc3)CC2)cc1 (centres undefined),1.68,3.05,1.7,3.45,2.05,4.19,1.4,3.03,1.11,2.43,1.77,3.86,2.17,4.78,1.6,2.95,1.76,3.28,1.83,3.46
C=CCN(CC=C)C(=O)c1cc(C)nc2c1c(=O)n(-c1ccccc1)c(=O)n2CCCN1CCN(c2ccccc2OC)CC1,> 50,> 50,> 50,> 50,> 50,> 50,> 50,> 50,31.4,> 50,> 50,> 50,> 50,> 50,> 50,> 50,> 50,> 50,> 50,> 50
Cc1cc(Br)c(NC(=O)c2c(-c3c(Cl)cccc3Cl)noc2C)c(Br)c1,> 100,> 100,> 100,> 100,> 100,> 100,> 100,> 100,47.2,> 100,90.8,> 100,> 100,> 100,> 100,> 100,> 100,> 100,14.3,> 100
Cc1cccc(Cn2cc(CO)c3cnccc32)c1,> 100,> 100,55.2,> 100,53.7,> 100,67.2,> 100,69.4,> 100,> 100,> 100,3.82,72.9,49.7,> 100,> 100,> 100,75.4,> 100
C=C(CN1CCc2[nH]c3ccc(F)cc3c2C1)c1ccc(C(=O)Nc2ccccc2N)cc1,3.33,11.4,0.621,11.3,0.772,3.82,1.8,31.6,2.14,7.4,1.66,3.94,2.48,> 100,1.6,4.07,3.54,26.2,2.26,5.9
COc1ccc(/C=C2\CCC/C(=C\c3ccc(OC)c(OC)c3)C2=O)cc1OC,5.04,> 32.5,1.18,17.5,1.16,> 32.5,1.34,> 32.5,1.29,12.8,1.28,9.89,1.15,> 32.5,1.1,> 32.5,16.7,> 32.5,7.63,> 32.5
O=C(Nc1ccc(OC(F)(F)Cl)cc1)c1cnc(N2CC[C@@H](O)C2)c(-c2ccn[nH]2)c1,5.03,28.3,24.9,79.6,10.8,54.6,3.12,12.1,12.7,26.5,13.2,43.3,9.44,39.9,7.3,21.7,11.8,24.9,5.07,19.5
